The values below come from ChEMBL document CHEMBL1201862, “PubChem BioAssay data set” (2004).

Molecules are shown by their SMILES.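 96-well plates; 48 h exposure; 5 concentrations. Endpoints by linear interpolation between flanking doses. Not reached: highest tested concentration assigned. GI50 marks 50% less growth.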 Active and inactive are the calls of the source. No stated cut-off is given here; in the data, active = GI50 up to about 1.1 µM and inactive = higher.

Among the test systems are ACHN; HCT-15; HOP-62; HT-29; IGROV-1; LOX IMVI; M14; OVCAR-3; OVCAR-4; OVCAR-5; OVCAR-8; SF-268; SF-295; SF-539; SN12C; SR; UACC-257; UO-31; A498.
Holding throughout (test): NCI-60 cell line screen, 48 h

Consider `O=C1Nc2ccccc2/C1=N/NC(=S)Nc1ccc([N+](=O)[O-])cc1`, for which the GI50 was 6.84 µM (inactive) in the test with ACHN; 2.33 µM in the test with HCT-15; 4.62 µM (inactive) in the test on HOP-62; 18.4 µM (inactive) in the test on HT-29; 10.7 µM (inactive) in the test with IGROV-1; 2.94 µM (inactive) in the test on LOX IMVI. Also, the GI50 with M14 was 6.62 µM (inactive); in the test with OVCAR-3 it was 13.4 µM (inactive); with OVCAR-4 it was 18.6 µM (inactive); with OVCAR-5, 22.9 µM (inactive); in the test with OVCAR-8, 1.77 µM (inactive); in the test on SF-268, 13 µM (inactive). For the same molecule, the GI50 with SF-295 was 6.64 µM (inactive); in the test with SF-539, 13.8 µM (inactive); in the test on SN12C, 16.9 µM (inactive); in the test on SR it was 4.72 µM (inactive); in the test on UACC-257, 21.1 µM (inactive); in the test on UO-31, 4.81 µM (inactive).
As to `S=C(N/N=C\c1ccccn1)N(Cc1ccccn1)Cc1ccccn1`, the GI50 is 0.316 µM (active) with ACHN; 0.622 µM in the test with HCT-15; 2.71 µM (inactive) in the test with HOP-62; 0.0822 µM (active) with HT-29; 0.427 µM (active) in the test on IGROV-1; 0.646 µM (active) in the test with LOX IMVI. The GI50 in the test on M14 is 1.1 µM (active); in the test with OVCAR-3 it was 1.94 µM (inactive); in the test with OVCAR-4 it was 0.91 µM (active); in the test with OVCAR-5 it was 13 µM (inactive); with OVCAR-8 it was 0.367 µM (active); with SF-268, 0.431 µM (active). Besides, the GI50 is 1.65 µM (inactive) with SF-295; 4.68 µM (inactive) in the test on SF-539; 0.34 µM (active) with SN12C; 1.42 µM (inactive) in the test on SR; 4.82 µM (inactive) in the test with UACC-257; 1.26 µM (inactive) in the test on UO-31.
Turning to `CO/C(=N\N=C\c1ccc(Cl)c(Cl)c1)c1ccncc1`, the GI50 with ACHN was 4.99 µM (inactive); in the test with HCT-15, more than 10 µM; in the test on HOP-62, > 10 µM (inactive); in the test with IGROV-1, > 10 µM (inactive); in the test on LOX IMVI, > 10 µM (inactive); in the test with M14, > 10 µM (inactive). Besides, the GI50 in the test on OVCAR-3, in the test with OVCAR-5, in the test with OVCAR-8, in the test with SF-268, in the test on SF-295 and in the test on SF-539 was > 10 µM (inactive) each time. Besides, the GI50 in the test with SN12C is > 10 µM (inactive); with SR, 2.75 µM (inactive); with UO-31, > 10 µM (inactive).
`O=c1oc2c(Cl)cc(Cl)cc2cc1-c1cn2c(n1)sc1ccccc12`: the GI50 was 65.3 µM (inactive) in the test with ACHN; 28.6 µM in the test with HCT-15; 53.5 µM (inactive) in the test on HOP-62; 71.1 µM (inactive) with HT-29; 44.1 µM (inactive) in the test with IGROV-1; 60.3 µM (inactive) with LOX IMVI. Further, the GI50 is 78.7 µM (inactive) in the test with M14; 31.4 µM (inactive) in the test on OVCAR-3; 47.6 µM (inactive) with OVCAR-4; > 100 µM (inactive) in the test on OVCAR-5; 87.1 µM (inactive) in the test with OVCAR-8; 65.8 µM (inactive) in the test with SF-268. Also, the GI50 in the test with SF-295 is 59.2 µM (inactive); in the test on SF-539, > 100 µM (inactive); in the test on SN12C, 67.8 µM (inactive); in the test with SR, 21.1 µM (inactive); in the test on UACC-257, > 100 µM (inactive); in the test with UO-31, 36.1 µM (inactive).
As to `Cc1ccc(-n2cnc3c(N/N=C4\SCC(=O)N4c4ccccc4)ncnc32)cc1`, the GI50 in the test on A498 was 14.2 µM (inactive); in the test with ACHN, 5.78 µM (inactive); in the test on HCT-15, 2.3 µM; in the test with HOP-62, 15.2 µM (inactive); in the test with HT-29, 3.44 µM (inactive); in the test with IGROV-1, 4 µM (inactive). For the same molecule, the GI50 was 2.54 µM (inactive) in the test on LOX IMVI; 3.66 µM (inactive) in the test with M14; 3.13 µM (inactive) with OVCAR-3; 8.75 µM (inactive) with OVCAR-4; 12.2 µM (inactive) in the test with OVCAR-5; 3.27 µM (inactive) with OVCAR-8. The GI50 in the test with SF-268 is 4.88 µM (inactive); in the test on SF-295 it was 13.3 µM (inactive); with SF-539, 1.87 µM (inactive); in the test with SN12C, 2.97 µM (inactive); in the test with UACC-257, 3.87 µM (inactive); in the test on UO-31, 1.15 µM (inactive).
